Measurements taken from patent US20260107941A1.
Converted amounts (≈) assume the structure as drawn. “And” between values parts separate entries of the source, which are not always exact repeats. Equal entries are not always repeated.

Tests used:
[1] = tested on: Acidovorax citrulli; experiment: Turbidity method, toxicity to Acidovorax citrulli; type: cell-based; details: Paracidovorax citrulli; A. citrulli; turbidity in NB medium, shaking culture 30° C., 2 d to 3 d
[2] = tested on: Rhizoctonia solani; experiment: Mycelial growth rate method, toxicity to Rhizoctonia solani; type: cell-based; details: R. solani, mycelial growth on drug-containing PDA plate, 28° C., 3 d to 7 d
Procedure: (§1) A PDA solid medium was heated, melted, shaken, and cooled to about 45° C.; a medicinal solution (filtered with a 0.22 μm sterile filter) and the PDA solid medium were mixed, cooled to obtain a drug-containing medium plate with a certain concentration; a phytopathogen cake was placed in the center of the plate, and cultured at 28° C. for 3 d to 7 d; when the hyphae of the phytopathogen in the control group were about to fill the dish, a colony diameter was measured using a cross method, and the mycelial growth inhibition rate and toxicity were calculated. [formula]

[3] = tested on: Xanthomonas oryzae; experiment: microbe, parasite or virus in culture; type: cell-based
[4] = tested on: Erwinia amylovory; experiment: Turbidity method, toxicity to Erwinia amylovory; type: cell-based; details: E. amylovory, turbidity in NB medium, shaking culture 30° C., 2 d to 3 d
[5] = tested on: Rhizoctonia solani; experiment: Pot method, control effect on Rhizoctonia solani in cotton seedlings; type: in vivo; details: 50 mL applied on 1 d, 3 d, 5 d, 7 d, after 10 d
Procedure: A Rhizoctonia solani suspension (10^7 CFU/mL) was added to a matrix at a ratio of 20:1 (w/w), mixed well, germinated cotton seeds were sown into the matrix, and then 50 mL of the medicinal solution was applied on 1 d, 3 d, 5 d, and 7 d separately. After culturing for 10 d, the incidence rate was investigated and the control effect was calculated.

[6] = tested on: Alternaria alternata; experiment: Mycelial growth rate method, toxicity to Alternaria alternata; type: cell-based; details: A. alternata, mycelial growth on drug-containing PDA plate, 28° C., 3 d to 7 d
Procedure: as §1

[7] = tested on: Fusarium oxysporum; experiment: Mycelial growth rate method, toxicity to Fusarium oxysporum; type: cell-based; details: F. oxysporum, mycelial growth on drug-containing PDA plate, 28° C., 3 d to 7 d
Procedure: as §1

[8] = tested on: pear fire blight; experiment: Field test, control effect on pear fire blight in fragrant pear orchards; details: 3 L sprayed per pear tree, 3 times at 7 d/time
[9] = tested on: Colletotrichum orbiculare; experiment: Mycelial growth rate method, toxicity to Colletotrichum orbiculare; type: cell-based; details: C. orbiculare, mycelial growth on drug-containing PDA plate, 28° C., 3 d to 7 d
Procedure: as §1

[10] = tested on: Cladosporium fulvum; experiment: Mycelial growth rate method, toxicity to Cladosporium fulvum; type: cell-based; details: Fulvia fulva; C. fulvum; mycelial growth on drug-containing PDA plate, 28° C., 3 d to 7 d
Procedure: as §1

[11] = tested on: Pseudomonas syringae pv. lachrymans; experiment: microbe, parasite or virus in culture; type: cell-based; details: P. syringae pv. lachrymans

CCN(CC)c1ccc(C=O)c(O)c1
EC50 [1]: 108 µg/mL (≈ 561 µM)
EC50 [2]: 14.5 µg/mL (≈ 75 µM)
EC50 [3]: 136 µg/mL (≈ 706 µM)
EC50 [4]: 92.1 µg/mL (≈ 477 µM)
Control effect (%) ([5]; 50 mg/L): 60.66% and 60.66c %
Incidence (%) ([5]; 50 mg/L): 20.00%
Control effect (%) ([5]; 100 mg/L): 77.05% and 77.05b %
Incidence (%) ([5]; 100 mg/L): 11.67%
Control effect (%) ([5]; 150 mg/L): 86.89% and 86.89a %
Incidence (%) ([5]; 150 mg/L): 6.67%
EC50 [6]: 200 µg/mL (≈ 1040 µM)
EC50 [7]: 40.8 µg/mL (≈ 211 µM)
Control effect (%) 7 d after last dose ([8]; 200 mg/L): 40.85c %
Control effect (%) 14 d after last dose ([8]; 200 mg/L): 35.14c %
Control effect (%) 7 d after last dose ([8]; 300 mg/L): 50.37% and 50.37b %
Control effect (%) 14 d after last dose ([8]; 300 mg/L): 44.71% and 44.71b %
Control effect (%) 7 d after last dose ([8]; 400 mg/L): 58.13% and 58.13a %
Control effect (%) 14 d after last dose ([8]; 400 mg/L): 50.81% and 50.81a %
EC50 [9]: 93.8 µg/mL (≈ 485 µM)
EC50 [10]: 113 µg/mL (≈ 583 µM)
EC50 [11]: 114 µg/mL (≈ 592 µM)

COC(=O)Nc1nc2ccccc2[nH]1 [carbendazim, reference compound]
Control effect (%) ([5]; 100 mg/L): 49.18d %
Incidence (%) ([5]; 100 mg/L): 25.83%

zhongshengmycin [reference compound]
Control effect (%) 7 d after last dose ([8]; 50 mg/L): 53.06ab %
Control effect (%) 14 d after last dose ([8]; 50 mg/L): 47.36b %
